In PubChem BioAssay (NCI):
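In this assay, cells in 96-well plates receive the compound at five concentrations for 48 hours. Endpoints are linearly interpolated between the surrounding concentrations. GI50 = concentration required for 50% inhibition of growth. TGI denotes the concentration required for complete inhibition of growth.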

Key:
Experiment in all cases: NCI tumour cell line growth inhibition, 48 h
ACHN renal = tested on: ACHN renal
CAKI-1 renal = tested on: CAKI-1 renal
NCI-H460 lung = tested on: NCI-H460 lung
OVCAR-5 ovarian = tested on: OVCAR-5 ovarian
SK-OV-3 ovarian = tested on: SK-OV-3 ovarian
MCF7 breast = tested on: MCF7 breast
MDA-MB-435 = tested on: MDA-MB-435
NCI-H522 lung = tested on: NCI-H522 lung
PC-3 prostate = tested on: PC-3 prostate
SR leukemia = tested on: SR leukemia

N#Cc1c(NN)nc(NN)c(C#N)c1-c1ccccc1
TGI (ACHN renal): > 100 µM
TGI (CAKI-1 renal): > 100 µM
TGI (NCI-H460 lung): > 100 µM
TGI (OVCAR-5 ovarian): > 100 µM
TGI (SK-OV-3 ovarian): > 100 µM

N[C@@H]1CCCC[C@H]1N.O=C([O-])C(=O)[O-].[Pt+4]
GI50 (ACHN renal): 2.15 µM
TGI (ACHN renal): 45.3 µM
GI50 (CAKI-1 renal): 0.765 µM
TGI (CAKI-1 renal): 39.3 µM
GI50 (MCF7 breast): 0.224 µM
TGI (MCF7 breast): 6.63 µM
GI50 (MDA-MB-435): 0.577 µM
TGI (MDA-MB-435): 18.6 µM
GI50 (NCI-H460 lung): 0.435 µM
TGI (NCI-H460 lung): 38.3 µM
GI50 (NCI-H522 lung): 3.92 µM
TGI (NCI-H522 lung): 32.3 µM
GI50 (OVCAR-5 ovarian): 0.671 µM
TGI (OVCAR-5 ovarian): 21.2 µM
GI50 (PC-3 prostate): 17.9 µM
TGI (PC-3 prostate): > 100 µM
GI50 (SK-OV-3 ovarian): > 66.2 µM
TGI (SK-OV-3 ovarian): > 100 µM

CCc1c(C#N)c(S[C@@H](C(N)=O)c2ccccc2)nc(N(C)C)c1C#N
GI50 (ACHN renal): 3.9 µM
TGI (ACHN renal): > 100 µM
GI50 (CAKI-1 renal): 12.9 µM
TGI (CAKI-1 renal): > 100 µM
GI50 (MDA-MB-435): > 100 µM
TGI (MDA-MB-435): > 100 µM
GI50 (NCI-H460 lung): > 100 µM
TGI (NCI-H460 lung): > 100 µM
GI50 (OVCAR-5 ovarian): > 100 µM
TGI (OVCAR-5 ovarian): > 100 µM
GI50 (SK-OV-3 ovarian): 6.65 µM
TGI (SK-OV-3 ovarian): > 100 µM

N#CC(C(=O)CCC(=O)C(C#N)c1ccccc1)c1ccccc1 (stereo unspecified)
TGI (ACHN renal): > 100 µM
TGI (CAKI-1 renal): > 100 µM
TGI (NCI-H460 lung): > 100 µM
TGI (NCI-H522 lung): > 100 µM
TGI (OVCAR-5 ovarian): > 100 µM
TGI (SK-OV-3 ovarian): > 100 µM
TGI (SR leukemia): > 100 µM

O=c1cc2ccccc2nn1Cc1cccc(Cl)c1
TGI (ACHN renal): > 100 µM
TGI (CAKI-1 renal): > 100 µM
TGI (NCI-H460 lung): > 100 µM
TGI (OVCAR-5 ovarian): > 100 µM
TGI (SK-OV-3 ovarian): > 100 µM

Cc1ccc(/C=C2/SC(Nc3nc(-c4csc(NC5=NC(=O)/C(=C\c6ccc(C)cc6)S5)n4)cs3)=NC2=O)cc1
GI50 (CAKI-1 renal): 11.1 µM
TGI (CAKI-1 renal): > 50 µM
GI50 (MCF7 breast): 2.3 µM
TGI (MCF7 breast): > 50 µM
GI50 (NCI-H460 lung): 4.36 µM
TGI (NCI-H460 lung): > 50 µM
GI50 (NCI-H522 lung): 21.6 µM
TGI (NCI-H522 lung): > 50 µM
GI50 (OVCAR-5 ovarian): 18.9 µM
TGI (OVCAR-5 ovarian): > 50 µM
GI50 (PC-3 prostate): 6.52 µM
TGI (PC-3 prostate): > 50 µM

CC1(c2cccc3ccccc23)OC(=O)c2ccccc21 (stereo unspecified)
TGI (ACHN renal): 70.9 µM
TGI (CAKI-1 renal): 51 µM
TGI (NCI-H460 lung): 52.8 µM
TGI (NCI-H522 lung): 61.4 µM
TGI (OVCAR-5 ovarian): > 100 µM
TGI (SK-OV-3 ovarian): 75.8 µM

CCC1(c2c(F)c(F)c(N)c(F)c2F)CCC(=O)NC1=O (stereo unspecified)
TGI (ACHN renal): > 100 µM
TGI (CAKI-1 renal): > 100 µM
TGI (NCI-H460 lung): > 100 µM
TGI (NCI-H522 lung): > 100 µM
TGI (OVCAR-5 ovarian): > 100 µM
TGI (SK-OV-3 ovarian): > 100 µM
TGI (SR leukemia): > 100 µM

CCOc1ccccc1NC(=O)CC1SC(=Nc2ccc([N+](=O)[O-])cc2)NC1=O (stereo unspecified)
TGI (ACHN renal): 46 µM
TGI (NCI-H460 lung): 51.1 µM
TGI (OVCAR-5 ovarian): 78.7 µM

N/C(=C\c1ccc(OCc2ccccc2)c(OCc2ccccc2)c1[N+](=O)[O-])C(=O)O
TGI (ACHN renal): > 100 µM
TGI (NCI-H522 lung): > 100 µM
TGI (OVCAR-5 ovarian): > 100 µM
TGI (SK-OV-3 ovarian): > 100 µM
TGI (SR leukemia): > 100 µM

COC(=O)/C([Se]c1c(C)cc(C)cc1C)=C(\[Se]c1c(C)cc(C)cc1C)C(=O)OC
TGI (ACHN renal): > 100 µM
TGI (CAKI-1 renal): > 100 µM
TGI (NCI-H460 lung): > 100 µM
TGI (NCI-H522 lung): > 100 µM
TGI (OVCAR-5 ovarian): > 100 µM
TGI (SK-OV-3 ovarian): > 100 µM
TGI (SR leukemia): > 100 µM

Cc1cc2nc(CCC(=O)O)c(=O)[nH]c2cc1C
TGI (ACHN renal): > 100 µM
TGI (CAKI-1 renal): > 100 µM
TGI (NCI-H460 lung): > 100 µM
TGI (NCI-H522 lung): > 100 µM
TGI (OVCAR-5 ovarian): > 100 µM
TGI (SK-OV-3 ovarian): > 100 µM
TGI (SR leukemia): > 100 µM

Fc1ccc2c(c1)c(-c1nc(-c3c[nH]c4ncccc34)cs1)cn2CCCN1CCCCC1
GI50 (MDA-MB-435): 1.66 µM
TGI (MDA-MB-435): 3.17 µM
GI50 (OVCAR-5 ovarian): 1.61 µM
TGI (OVCAR-5 ovarian): 3.1 µM
GI50 (PC-3 prostate): 1.69 µM
TGI (PC-3 prostate): 3.2 µM
GI50 (SK-OV-3 ovarian): 1.81 µM
TGI (SK-OV-3 ovarian): 3.43 µM

c1ccc2[nH]c(-c3ccc(NN=Nc4ccncc4)cc3)nc2c1
GI50 (ACHN renal): 31.2 µM
TGI (ACHN renal): > 100 µM
GI50 (CAKI-1 renal): 5.2 µM
TGI (CAKI-1 renal): > 100 µM
GI50 (MDA-MB-435): 30.7 µM
TGI (MDA-MB-435): > 100 µM
GI50 (NCI-H460 lung): 2.46 µM
TGI (NCI-H460 lung): > 100 µM
GI50 (NCI-H522 lung): 77.6 µM
TGI (NCI-H522 lung): > 100 µM
GI50 (OVCAR-5 ovarian): > 100 µM
TGI (OVCAR-5 ovarian): > 100 µM
GI50 (PC-3 prostate): 33 µM
TGI (PC-3 prostate): > 100 µM
GI50 (SK-OV-3 ovarian): > 100 µM
TGI (SK-OV-3 ovarian): > 100 µM
GI50 (SR leukemia): 47.7 µM
TGI (SR leukemia): > 100 µM

N#C/C(=C/c1ccc[nH]1)P(=O)(O)O
TGI (ACHN renal): > 100 µM
TGI (CAKI-1 renal): > 100 µM
TGI (NCI-H460 lung): > 100 µM
TGI (NCI-H522 lung): > 100 µM
TGI (OVCAR-5 ovarian): > 100 µM
TGI (SK-OV-3 ovarian): > 100 µM
TGI (SR leukemia): > 100 µM

CCCCCCCCCCCCCC(=O)CC(=O)c1c(O)cccc1O
TGI (ACHN renal): 74.5 µM
TGI (CAKI-1 renal): 76.1 µM
TGI (NCI-H460 lung): 91.9 µM
TGI (NCI-H522 lung): 59.1 µM
TGI (OVCAR-5 ovarian): > 100 µM
TGI (SK-OV-3 ovarian): > 100 µM

O=[N+]([O-])c1nccn1CC(O)CN1CC1 (stereo unspecified)
TGI (ACHN renal): > 100 µM
TGI (CAKI-1 renal): > 100 µM
TGI (NCI-H460 lung): > 100 µM
TGI (NCI-H522 lung): 50.9 µM
TGI (OVCAR-5 ovarian): > 100 µM
TGI (SK-OV-3 ovarian): 94.7 µM
TGI (SR leukemia): > 100 µM

Oc1cc(O)c2c(-c3c(O)c(-c4ccc(O)c(O)c4)[o+]c4cc(O)cc(O)c34)c(O)c(-c3ccc(O)c(O)c3)[o+]c2c1
TGI (ACHN renal): 66.6 µM
TGI (CAKI-1 renal): 95.6 µM
TGI (NCI-H460 lung): 90.6 µM
TGI (OVCAR-5 ovarian): > 100 µM
TGI (SK-OV-3 ovarian): > 100 µM
TGI (SR leukemia): 74.8 µM
